Values after ≈ are worked out from the molar mass of the structure shown. Blank lines part the entries; values can stand above or below the compound they belong to.
Tests used:
Assay in all cases: ≥ marks a high value that may be exact or a test limit, other limits are often not marked, values filed in µg/mL are converted to µM
[1] = test system: Pseudomonas aeruginosa H1001
[2] = test system: Escherichia coli DH5alpha
[3] = test system: Micrococcus luteus ATCC 4698
[4] = test system: Staphylococcus aureus ATCC 6538
[5] = test system: Staphylococcus epidermidis ATCC 12228
[6] = test system: Bacillus subtilis ATCC 6633
[7] = test system: Escherichia coli ATCC 25922
[8] = test system: Klebsiella pneumoniae ATCC 10031
[9] = test system: Micrococcus luteus ATCC 10240
[10] = test system: Pseudomonas aeruginosa ATCC 27853
[11] = test system: Salmonella enterica subsp. enterica serovar Typhimurium ATCC 14028
[12] = test system: Shigella dysenteriae ATCC 9752
[13] = test system: Staphylococcus aureus ATCC 6538P
Escherichia coli W160-37 = test system: Escherichia coli W160-37
[14] = test system: Acinetobacter baumannii ATCC 19606
Acinetobacter baumannii = test system: Acinetobacter baumannii
Escherichia coli = test system: Escherichia coli
[15] = test system: Klebsiella pneumoniae ATCC 13883
Klebsiella pneumoniae = test system: Klebsiella pneumoniae
Pseudomonas aeruginosa = test system: Pseudomonas aeruginosa
[16] = test system: Staphylococcus aureus ATCC 29213
Staphylococcus aureus MR = test system: Staphylococcus aureus MR
Staphylococcus aureus = test system: Staphylococcus aureus
Escherichia coli JM109 = test system: Escherichia coli JM109

MIC [1]: ≥ 42.4 µM
Structure (SMILES): CC[C@H](C)[C@H](NC(=O)[C@H](C)N)C(=O)N[C@@H](CCCCN)C(=O)N[C@@H](CC(C)C)C(=O)N[C@@H](CC(C)C)C(=O)N[C@@H](CS)C(=O)N[C@@H](CCCN=C(N)N)C(=O)N[C@H](C(=O)N[C@@H](Cc1cnc[nH]1)C(=O)N[C@@H](CCCCN)C(=O)O)C(C)C [AIKLLCRVHK]

MIC [1]: ≥ 173 µM
Structure (SMILES): CC[C@H](C)[C@H](NC(=O)[C@H](C)NC(=O)[C@@H](NC(=O)[C@H](CCCCN)NC(=O)[C@H](CCCCN)NC(=O)[C@H](Cc1cnc[nH]1)NC(=O)[C@@H](NC(=O)[C@H](CCCN=C(N)N)NC(=O)[C@@H](N)CS)C(C)C)[C@@H](C)CC)C(=O)N[C@@H](CO)C(=O)O [CRVHKKIAIS]

MIC [6]: 4.42 µM (≈ 6.3 µg/mL) | MIC [7]: 8.78 µM (≈ 12.5 µg/mL) | MIC [8]: 8.78 µM (≈ 12.5 µg/mL) | MIC [9]: 2.18 µM (≈ 3.1 µg/mL) | MIC [10]: 17.6 µM (≈ 25 µg/mL) | MIC [11]: 35.1 µM (≈ 50 µg/mL) | MIC [12]: 17.6 µM (≈ 25 µg/mL) | MIC [13]: 8.78 µM (≈ 12.5 µg/mL) | MIC [5]: 4.42 µM (≈ 6.3 µg/mL)
Structure (SMILES): CC(C)C[C@H](NC(=O)[C@H](Cc1c[nH]c2ccccc12)NC(=O)CNC(=O)[C@H](CC(C)C)NC(=O)[C@@H](N)Cc1ccccc1)C(=O)N[C@@H](Cc1ccccc1)C(=O)N[C@@H](CCCCN)C(=O)N[C@@H](Cc1c[nH]c2ccccc12)C(=O)N[C@@H](C)C(=O)N[C@@H](CCCCN)C(=O)N[C@@H](CCCCN)C(N)=O [FLGWLFKWAKK]

MIC [1]: 8.5 µM (≈ 16 µg/mL)
Structure (SMILES): CC(C)C[C@H](NC(=O)[C@@H](N)Cc1ccccc1)C(=O)N1CCC[C@H]1C(=O)N[C@@H](CCCCN)C(=O)N[C@@H](CCCCN)C(=O)N[C@@H](Cc1ccccc1)C(=O)N[C@@H](CCCN=C(N)N)C(=O)N[C@@H](Cc1c[nH]c2ccccc12)C(=O)N[C@@H](Cc1c[nH]c2ccccc12)C(=O)N[C@@H](CCCCN)C(=O)N[C@@H](Cc1ccc(O)cc1)C(=O)N[C@@H](CCCN=C(N)N)C(=O)N[C@@H](CCCCN)C(N)=O [FLPKKFRWWKYRK]

MIC [1]: 5.82 µM (≈ 8 µg/mL)
Structure (SMILES): CC[C@H](C)[C@H](NC(=O)[C@H](CCSC)NC(=O)[C@H](Cc1c[nH]c2ccccc12)NC(=O)[C@H](Cc1c[nH]c2ccccc12)NC(=O)[C@H](CC(C)C)NC(=O)[C@@H](N)CCCCN)C(=O)N[C@@H](CCCN=C(N)N)C(=O)N[C@@H](CCCN=C(N)N)C(=O)N[C@@H](Cc1c[nH]c2ccccc12)C(=O)O [KLWWMIRRW]

Continued, compound first:

Structure (SMILES): CC(C)C[C@H](NC(=O)[C@H](CC(C)C)NC(=O)[C@H](CCCCN)NC(=O)[C@H](CO)NC(=O)[C@H](CC(C)C)NC(=O)[C@H](C)NC(=O)[C@H](CCCCN)NC(=O)[C@H](C)NC(=O)[C@H](CC(C)C)NC(=O)[C@H](C)NC(=O)CNC(=O)[C@H](CC(C)C)NC(=O)[C@@H](N)Cc1ccccc1)C(=O)O [FLGALAKALSKLL]
MIC [2]: ≥ 74.4 µM | MIC [3]: 11.9 µM (≈ 16 µg/mL) | MIC [4]: 20.8 µM (≈ 28 µg/mL) | MIC [5]: 35.7 µM (≈ 48 µg/mL)

Structure (SMILES): CC(C)C[C@H](NC(=O)[C@@H](NC(=O)[C@H](CCCCN)NC(=O)[C@H](CO)NC(=O)[C@H](CC(C)C)NC(=O)[C@H](C)NC(=O)[C@H](CCCCN)NC(=O)[C@H](Cc1ccccc1)NC(=O)[C@H](CC(C)C)NC(=O)[C@H](C)NC(=O)CNC(=O)[C@H](CC(C)C)NC(=O)[C@@H](N)Cc1ccccc1)C(C)C)C(=O)O [FLGALFKALSKVL]
MIC [2]: 28.4 µM (≈ 40 µg/mL) | MIC [3]: 5.69 µM (≈ 8 µg/mL) | MIC [4]: 9.24 µM (≈ 13 µg/mL) | MIC [5]: 11.4 µM (≈ 16 µg/mL)

Structure (SMILES): CC[C@H](C)[C@H](NC(=O)[C@H](CCCCN)NC(=O)[C@H](CCCN=C(N)N)NC(=O)[C@@H]1CCCN1C(=O)[C@@H](NC(=O)[C@H](CC(C)C)NC(=O)[C@H](CC(C)C)NC(=O)[C@H](CC(C)C)NC(=O)[C@@H](N)Cc1ccccc1)[C@@H](C)CC)C(=O)N[C@H](C(=O)N[C@H](C(=O)N[C@@H](C)C(=O)N[C@@H](CC(C)C)C(N)=O)[C@@H](C)O)C(C)C [FLLLIPRKIVTAL]
MIC (Escherichia coli W160-37): ≥ 93.5 µM

Structure (SMILES): CC[C@H](C)[C@H](NC(=O)CN)C(=O)N[C@@H](CCCCN)C(=O)N[C@@H](CCCCN)C(=O)N[C@@H](Cc1c[nH]c2ccccc12)C(=O)N[C@H](C(=O)N[C@@H](CCCCN)C(=O)NCC(=O)N[C@H](C(=O)N[C@@H](C)C(=O)N[C@@H](CCCCN)C(=O)NCC(=O)N[C@H](C(=O)N[C@@H](C)C(=O)N[C@@H](CCCCN)C(=O)N[C@@H](CC(=O)O)C(=O)N[C@@H](CC(C)C)C(=O)N[C@@H](C)C(=O)N[C@@H](CCCCN)C(=O)N[C@@H](CCCCN)C(=O)N[C@H](C(=O)N[C@@H](CC(C)C)C(N)=O)[C@@H](C)CC)C(C)C)C(C)C)C(C)C [GIKKWVKGVAKGVAKDLAKKIL]
MIC [14]: 0.707 µM (≈ 1.66 µg/mL) | MIC (Acinetobacter baumannii): 0.707 µM (≈ 1.66 µg/mL) | MIC [7]: 0.177 µM (≈ 0.415 µg/mL) | MIC (Escherichia coli): 0.25 µM (≈ 0.587 µg/mL) | MIC [15]: 0.707 µM (≈ 1.66 µg/mL) | MIC (Klebsiella pneumoniae): 2.83 µM (≈ 6.65 µg/mL) | MIC [10]: 2 µM (≈ 4.7 µg/mL) | MIC (Pseudomonas aeruginosa): 2.83 µM (≈ 6.65 µg/mL) | MIC [16]: 0.354 µM (≈ 0.831 µg/mL) | MIC (Staphylococcus aureus MR): 4 µM (≈ 9.4 µg/mL) | MIC (Staphylococcus aureus): 1 µM (≈ 2.35 µg/mL)

Structure (SMILES): CC[C@H](C)[C@H](N)C(=O)N[C@H](C(=O)N[C@@H](CO)C(=O)N[C@H](C(=O)N[C@H](C(=O)NCC(=O)N[C@@H](CC(=O)O)C(=O)N[C@@H](CC(C)C)C(=O)N[C@H](C(=O)N[C@@H](CCCCN)C(=O)N[C@@H](Cc1c[nH]c2ccccc12)C(=O)N[C@H](C(=O)N[C@H](C(=O)N[C@@H](CCCCN)C(=O)N[C@H](C(=O)N[C@H](C(=O)O)C(C)C)[C@@H](C)O)[C@@H](C)CC)[C@@H](C)CC)C(C)C)[C@@H](C)CC)[C@@H](C)O)[C@@H](C)CC [IISTIGDLVKWIIKTV]
MIC (Escherichia coli W160-37): ≥ 35 µM

Structure (SMILES): CC[C@H](C)[C@H](N)C(=O)N[C@H](C(=O)N[C@@H](CO)C(=O)N[C@H](C(=O)N[C@H](C(=O)NCC(=O)N[C@@H](CCCCN)C(=O)N[C@@H](CC(C)C)C(=O)N[C@H](C(=O)N[C@@H](CCCCN)C(=O)N[C@@H](Cc1c[nH]c2ccccc12)C(=O)N[C@H](C(=O)N[C@H](C(=O)N[C@@H](CCCCN)C(=O)N[C@H](C(=O)N[C@H](C(=O)O)C(C)C)[C@@H](C)O)[C@@H](C)CC)[C@@H](C)CC)C(C)C)[C@@H](C)CC)[C@@H](C)O)[C@@H](C)CC [IISTIGKLVKWIIKTV]
MIC (Escherichia coli W160-37): 3 µM (≈ 5.44 µg/mL) | MIC (Staphylococcus aureus): 3.46 µM (≈ 6.28 µg/mL)

Structure (SMILES): CC[C@H](C)[C@H](NC(=O)[C@H](C)NC(=O)[C@H](CC(C)C)NC(=O)[C@H](CS)NC(=O)[C@H](Cc1cnc[nH]1)NC(=O)[C@H](C)NC(=O)[C@H](C)NC(=O)[C@H](CS)NC(=O)[C@@H](N)CC(C)C)C(=O)N[C@@H](CC(C)C)C(=O)N[C@@H](CCCN=C(N)N)C(=O)N[C@@H](CCCN=C(N)N)C(N)=O [LCAAHCLAILRR]
MIC (Escherichia coli JM109): 17.9 µM | MIC [13]: 7.46 µM | MIC (Staphylococcus aureus): 47.8 µM

Structure (SMILES): CC(C)C[C@@H]1NC(=O)[C@H](CCCN=C(N)N)NC(=O)[C@H](Cc2cnc[nH]2)NC(=O)[C@H](Cc2c[nH]c3ccccc23)NC(=O)CNC(=O)CNC(=O)[C@@H](NC(=O)[C@H](Cc2ccc(O)cc2)NC(=O)CNC(=O)CNC(=O)[C@@H](N)CO)CSSC[C@@H](C(=O)O)NC(=O)[C@H](CCCN=C(N)N)NC1=O [SGGYCGGWHRLRC]
MIC [3]: 17 µM (≈ 24.6 µg/mL)

Structure (SMILES): C[C@@H](O)[C@H](NC(=O)[C@@H]1CSSC[C@H](NC(=O)[C@H](Cc2ccc(O)cc2)NC(=O)CNC(=O)CNC(=O)[C@@H](N)CO)C(=O)NCC(=O)NCC(=O)N[C@@H](Cc2c[nH]c3ccccc23)C(=O)N[C@@H](CCCCN)C(=O)N[C@@H](CCCN=C(N)N)C(=O)N[C@@H](CCCCN)C(=O)N[C@@H](CCCN=C(N)N)C(=O)N1)C(=O)N[C@@H](CO)C(=O)N[C@@H](Cc1ccc(O)cc1)C(=O)N[C@@H](CCCN=C(N)N)C(=O)N[C@@H](CO)C(=O)NCC(=O)O [SGGYCGGWKRKRCTSYRSG]
MIC [3]: 12 µM (≈ 25.3 µg/mL)

Structure (SMILES): CC[C@H](C)[C@H](NC(=O)[C@H](CCCN=C(N)N)NC(=O)[C@H](CCCN=C(N)N)NC(=O)[C@@H]1CCCN1C(=O)[C@@H]1CCCN1C(=O)[C@H](CCCN=C(N)N)NC(=O)[C@@H]1CCCN1C(=O)[C@H](CCCN=C(N)N)NC(=O)[C@@H]1CCCN1C(=O)[C@H](CC(C)C)NC(=O)[C@H](Cc1ccc(O)cc1)NC(=O)[C@@H]1CCCN1C(=O)[C@@H]1CCCN1C(=O)[C@H](CCCCN)NC(=O)[C@H](CCCN=C(N)N)NC(=O)[C@@H](N)C(C)C)C(=O)N[C@@H](Cc1ccc(O)cc1)C(=O)N[C@@H](CC(N)=O)C(=O)N[C@@H](CCCN=C(N)N)C(=O)NCC(=O)O [VRKPPYLPRPRPPRRIYNRG]
MIC [1]: 0.0362 µM (≈ 0.0901 µg/mL)

From DBAASP
